{"source": "PubChem BioAssay AID1645862", "about": "(Buhrlage Lab, Dana-Farber Cancer Institute and Novartis …, 2021)", "note": "Active and inactive are the calls of the source. How the calls were made is not given here."}
{"molecular_target": "Ubiquitin carboxyl-terminal hydrolase 8 (Homo sapiens) (UniProt P40818)", "sequence (P40818 whole entry, looked up)": "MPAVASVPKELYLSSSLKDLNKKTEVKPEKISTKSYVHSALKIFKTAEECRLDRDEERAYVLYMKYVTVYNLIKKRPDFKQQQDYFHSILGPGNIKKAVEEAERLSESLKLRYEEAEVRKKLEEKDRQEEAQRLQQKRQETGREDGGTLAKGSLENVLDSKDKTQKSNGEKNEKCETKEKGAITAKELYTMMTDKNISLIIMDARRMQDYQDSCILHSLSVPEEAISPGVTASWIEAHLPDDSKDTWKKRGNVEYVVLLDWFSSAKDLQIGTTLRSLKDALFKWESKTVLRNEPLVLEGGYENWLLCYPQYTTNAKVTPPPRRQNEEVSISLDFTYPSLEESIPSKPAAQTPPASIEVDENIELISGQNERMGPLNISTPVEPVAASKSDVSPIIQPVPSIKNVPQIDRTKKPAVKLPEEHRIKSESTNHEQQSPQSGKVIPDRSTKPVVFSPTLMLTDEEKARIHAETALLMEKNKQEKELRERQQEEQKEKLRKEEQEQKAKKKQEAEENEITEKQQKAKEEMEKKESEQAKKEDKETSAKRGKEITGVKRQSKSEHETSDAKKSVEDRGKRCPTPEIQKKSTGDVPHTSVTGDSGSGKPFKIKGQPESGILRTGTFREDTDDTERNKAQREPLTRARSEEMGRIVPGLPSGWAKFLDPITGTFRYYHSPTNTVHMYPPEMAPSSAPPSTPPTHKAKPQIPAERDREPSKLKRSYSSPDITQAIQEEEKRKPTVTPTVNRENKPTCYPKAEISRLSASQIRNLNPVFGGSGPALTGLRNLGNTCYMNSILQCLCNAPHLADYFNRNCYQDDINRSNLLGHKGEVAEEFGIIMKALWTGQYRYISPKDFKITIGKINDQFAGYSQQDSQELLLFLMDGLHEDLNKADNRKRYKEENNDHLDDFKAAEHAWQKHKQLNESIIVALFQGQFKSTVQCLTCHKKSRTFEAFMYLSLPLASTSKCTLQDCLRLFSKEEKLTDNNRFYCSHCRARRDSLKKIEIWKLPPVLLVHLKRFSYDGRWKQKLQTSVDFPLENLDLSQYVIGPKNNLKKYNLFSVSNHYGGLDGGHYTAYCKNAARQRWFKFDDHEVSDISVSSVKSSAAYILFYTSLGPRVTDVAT", "test": "Ubiquitin-specific protease 8 inhibitors, concentration-effect, biochemical, validation of initial actives (AID 1645862);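 further: potency reflects inhibition of USP8 cleavage of a ubiquitin rhodamine substrate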", "settings": "recombinant USP8 deubiquitinase activity assay"}
{"compound": "NC(=O)c1nc(-c2cccnc2)nc2c1[nH]c(=O)n2-c1ccc2c(c1)OCO2", "IC50": "> 40 µM (inactive)"}
{"compound": "CSc1cccc(NC(=O)C2C3C=CC4(O3)C2C(=O)N(CCc2ccccc2)C4C(=O)NC2CCCCC2)c1", "note": "(stereo not drawn)", "IC50": "> 40 µM (inactive)"}
{"compound": "CCOC(=O)c1cc2c(ccn2C)n1CC(=O)NC1CC1", "IC50": "> 40 µM (inactive)"}
{"compound": "CCn1cc2c(n1)c(=O)n(Cc1ccccc1)c(=O)n2CC(=O)Nc1ccc(OC)cc1", "IC50": "> 40 µM (inactive)"}
{"compound": "Cc1noc(C)c1COc1cccc(C(=O)Nc2cc(Cl)ccc2-n2cncn2)c1", "IC50": "> 40 µM (inactive)"}
{"compound": "O=C(NC(Cc1ccccc1)c1nc2ccccc2[nH]1)C1CC1", "note": "(stereo not drawn)", "IC50": "24.4 µM"}
{"compound": "Cc1ccc(NC(=O)c2cc(-c3cccnc3)n[nH]2)cc1F", "IC50": "> 40 µM (inactive)"}
{"compound": "COc1cc(-c2ccccc2)c(O)c(O)c1-c1ccccc1", "IC50": "16 µM"}
{"compound": "O=C(c1ccc2c(c1)OCO2)[C@@H]1[C@H](C(=O)OC(c2ccccc2)c2ccccc2)N2c3ccccc3C=CC2[C@@]12C(=O)Nc1ccccc12", "note": "(stereo partly drawn)", "IC50": "> 40 µM (inactive)"}
{"compound": "CCn1c(SCC(=O)Nc2ccc(C)c(Cl)c2)nnc1-c1ccc2c(c1)OCCO2", "IC50": "> 40 µM (inactive)"}
{"compound": "COc1ccc(NC(=O)Cn2cc(C(=O)c3ccc(F)cc3)c(=O)c3cc(C)ccc32)cc1OC", "IC50": "> 40 µM (inactive)"}
{"compound": "COc1cccc(-c2cncc(C3CCN(S(=O)(=O)N(C)C)CC3)n2)c1", "IC50": "> 40 µM (inactive)"}
{"compound": "COc1ccc(OC)c(NC(=O)c2sc(-c3ccccc3)nc2C)c1", "IC50": "> 40 µM (inactive)"}
{"compound": "O=C(c1ccncc1)N1CCN(CC2CC=CCC2)CC1", "note": "(stereo not drawn)", "IC50": "> 40 µM (inactive)"}
{"compound": "O=C(CSc1nnc2n(-c3ccccc3)c(=O)c3ccccc3n12)c1ccc(F)cc1", "IC50": "> 40 µM (inactive)"}
{"compound": "CNc1ccc(-c2noc([C@@H]3CCCN3Cc3cccc(C#N)c3)n2)cn1", "IC50": "> 40 µM (inactive)"}
{"compound": "COc1ccccc1NC(=O)C1=C(C)Nc2nc(SCc3ccccc3F)nn2C1c1ccccn1", "note": "(stereo not drawn)", "IC50": "> 40 µM (inactive)"}
{"compound": "CCOc1cccc(-c2noc(-c3nn(-c4ccccc4)ccc3=O)n2)c1", "IC50": "> 40 µM (inactive)"}
{"compound": "CCCn1cc(-c2nc(-c3ccccn3)no2)c(=O)c2ccccc21", "IC50": "> 40 µM (inactive)"}
{"compound": "CC(C)(C)C(=O)Nc1ccc(C(=O)Nc2cccc(-c3nnc(-c4ccccc4)o3)c2)cc1", "IC50": "> 40 µM (inactive)"}
{"compound": "Cc1nn(-c2ccccc2)c2c1nc(CCC(=O)NC1CCCCC1)c(=O)n2C", "IC50": "> 40 µM (inactive)"}
{"compound": "O=S(=O)(Nc1ccc(Oc2ncnc3cc(Cl)ccc23)nc1)c1ccc(S(=O)(=O)c2ccccc2)s1", "IC50": "> 40 µM (inactive)"}
{"compound": "CCC(C(=O)C(C)C(O)C(C)CCc1ccc(C)c(O)c1C(=O)O)C1OC(CC)(C2CCC(O)(CC)C(C)O2)CC1C", "note": "(stereo not drawn)", "IC50": "> 40 µM (inactive)"}
{"compound": "Cc1nn(-c2ccccc2)c2c1N=C1C(Cl)=CC(Cl)=CN1C21C(=O)Nc2ccccc21", "note": "(stereo not drawn)", "IC50": "> 40 µM (inactive)"}
{"compound": "Cc1cc(=O)n(CC(=O)Nc2ccccc2C)c(Nc2ccc(F)cc2)n1", "IC50": "> 40 µM (inactive)"}
{"compound": "COc1ccc(-c2nc(NCCCN3CCOCC3)c3ccccc3n2)cc1", "IC50": "> 40 µM (inactive)"}
{"compound": "Cc1cccc(Cl)c1NC(=O)Nc1ccc(NC(=O)c2ccccc2O)cc1", "IC50": "> 40 µM (inactive)"}
{"compound": "CCOc1ccc2cc3c(nc2c1)OC(=O)N(Cc1ccc(OC)cc1)C3", "IC50": "9.25 µM"}
{"compound": "O=C(Cn1cc(C(=O)c2ccc(F)cc2)c(=O)c2ccccc21)Nc1ccc2c(c1)OCO2", "IC50": "> 40 µM (inactive)"}
{"compound": "COc1ccc(C(=O)NC(Cc2ccccc2)c2nc3ccccc3[nH]2)c(OC)c1", "note": "(stereo not drawn)", "IC50": "9.44 µM"}
{"compound": "COc1ccc2c(c1)CCc1c-2nc2ccccc2c1N1CCOCC1", "IC50": "> 40 µM (inactive)"}
{"compound": "Cc1c(C#N)c2ccccc2n1CC(=O)NCc1ccc2c(c1)OCO2", "IC50": "> 40 µM (inactive)"}
{"compound": "CCOc1ncccc1C(=O)Nc1ccnn1Cc1ccccc1", "IC50": "> 40 µM (inactive)"}
{"compound": "CCOC(=O)C1CCN(C(=O)c2ccc3c(c2)NC(=O)C2CCCN32)CC1", "note": "(stereo not drawn)", "IC50": "2.02 µM"}
{"compound": "O=C(NCc1ccccc1)Nc1cccc2ccccc12", "IC50": "> 40 µM (inactive)"}
{"compound": "O=C(Nc1cccc2ccccc12)N1CCC(c2nc3c(nnn3Cc3ccc(F)cc3)c(=O)[nH]2)CC1", "IC50": "> 40 µM (inactive)"}
{"compound": "COc1ccc(NC(=O)CC(=O)c2ccc([N+](=O)[O-])cc2)cc1S(=O)(=O)Nc1ccc(Cl)cc1", "IC50": "> 40 µM (inactive)"}
{"compound": "Cc1ccc(C2c3[nH]c4ccccc4c3C[C@H]3C(=O)N(c4ccc(C(=O)NCCc5ccccc5)cc4)C(=O)N23)cc1", "note": "(stereo partly drawn)", "IC50": "> 40 µM (inactive)"}
{"compound": "COc1cc(NC(=O)Cn2c(=O)n(-c3ccc(CC(=O)NC4CCCC4)cc3)c(=O)c3ccccc32)cc(OC)c1", "IC50": "> 40 µM (inactive)"}
{"compound": "O=C(c1cc2occc2c(Nc2ccc(F)cc2)n1)N1CCN(c2ccccc2)CC1", "IC50": "> 40 µM (inactive)"}
{"compound": "COc1ccc(/C=C/C(=O)Nc2cccc(S(=O)(=O)Nc3ccccc3Cl)c2)c(OC)c1", "IC50": "> 40 µM (inactive)"}
{"compound": "O=C(c1cc(S(=O)(=O)Nc2ccc(Cl)cc2)ccc1Cl)N1CCCc2ccccc21", "IC50": "> 40 µM (inactive)"}
{"compound": "COc1ccc(Nc2nc3c(S(=O)(=O)c4ccc(C)cc4)nnn3c3ccsc23)c(OC)c1", "IC50": "> 40 µM (inactive)"}
{"compound": "C=C/C(=C/C(=O)C[C@H](C)C[C@@H](C)CC[C@H](O)[C@H](C)C(=O)CC(O)[C@H](C)[C@@H](C)OC(=O)C[C@@H](O)C1=C(C)C(=O)OC1=O)CC", "note": "(stereo partly drawn)", "IC50": "2.6 µM"}
{"compound": "Cc1ccccc1-c1nnc2sc(COc3ccc(Cl)cc3)nn12", "IC50": "> 40 µM (inactive)"}
{"compound": "COc1ccccc1CNC(=O)CCCCn1c(=O)c2ccccc2n(CC(=O)Nc2ccc(C)cc2C)c1=O", "IC50": "> 40 µM (inactive)"}
{"compound": "Cc1ccc(CNCc2cc3c(-c4ccc(F)cc4)nn(-c4ccccc4)c3[nH]c2=O)cc1", "IC50": "> 40 µM (inactive)"}
{"compound": "O=C(Cn1ccc2ccn(Cc3ccccc3)c2c1=O)Nc1ccccc1Cl", "IC50": "> 40 µM (inactive)"}
{"compound": "CCCCCCCc1cc(OC(=O)c2c(CCCCCCC)cc(O)cc2O[C@@H]2O[C@H](CO)[C@@H](O)[C@H](O)[C@H]2O)cc(O)c1C(=O)O", "IC50": "8.09 µM"}
{"compound": "Cc1c(-c2nn3c(-c4ccco4)nnc3s2)cccc1[N+](=O)[O-]", "IC50": "> 40 µM (inactive)"}
{"compound": "Cc1ncc(CO)c2c1Oc1nc(-c3cccc(Cl)c3)nc(SCC(=O)N3CCCCC3)c1C2", "IC50": "> 40 µM (inactive)"}
{"compound": "N#Cc1ccccc1NC(=O)c1cc2c(s1)-c1ccccc1S(=O)(=O)C2", "IC50": "> 40 µM (inactive)"}
{"compound": "O=c1c(S(=O)(=O)c2cc(F)cc(F)c2)c[nH]c2cc(Cl)ccc12", "IC50": "25.6 µM"}
{"compound": "CCc1ccc(S(=O)(=O)Nc2ccc(-c3nnc(-c4ccccc4)o3)cc2)cc1", "IC50": "> 40 µM (inactive)"}
{"compound": "COc1ccc(-c2nc3n(n2)C(CC(=O)Nc2cccc4ccccc24)C(=O)N3)cc1", "note": "(stereo not drawn)", "IC50": "> 40 µM (inactive)"}
{"compound": "O=C(NCc1ccco1)c1ccc(Cn2c(SCc3ccccc3)nc3ccncc32)cc1", "IC50": "> 40 µM (inactive)"}
{"compound": "COc1ccc(OC)c(NC(=O)c2cc(Cl)ccc2OC)c1", "IC50": "> 40 µM (inactive)"}
{"compound": "COc1ccc(-c2cc3c(=O)n(CC(=O)NCc4ccccc4)ncn3n2)cc1", "IC50": "> 40 µM (inactive)"}
{"compound": "Cc1noc(-c2ccnc(-n3cnc(C(=O)NCC4CC4)c3)c2)n1", "IC50": "> 40 µM (inactive)"}
{"compound": "COc1ccc(CCC(=O)Nc2nnc(C3CC(=O)N(c4ccccc4)C3)s2)cc1", "note": "(stereo not drawn)", "IC50": "> 40 µM (inactive)"}
{"compound": "Nc1c(C(=O)NCc2ccc3c(c2)OCO3)nnn1Cc1ccc(Br)cc1F", "IC50": "> 40 µM (inactive)"}
{"compound": "CNC(=O)c1c2n(c3ncccc13)CCN(S(=O)(=O)c1ccc(-c3ccccc3)cc1)C2", "IC50": "> 40 µM (inactive)"}
{"compound": "O=C(NCCc1nc2ccccc2n1CCCOc1ccccc1Cl)C1CCCCC1", "IC50": "> 40 µM (inactive)"}
{"compound": "CCCCCCCCCC(CCCCCCCCCC(=O)O)O[C@H]1O[C@@H](COC(C)=O)[C@H](O)[C@@H](O)[C@H]1OC(=O)CC(=O)O", "note": "(stereo partly drawn)", "IC50": "> 40 µM (inactive)"}
{"compound": "Cc1ccccc1-c1noc(-c2cn(Cc3ccc(NC(=O)Cc4ccccc4)cc3)cn2)n1", "IC50": "> 40 µM (inactive)"}
{"compound": "O=[N+]([O-])c1ccc2c(c1)nc1n2CCN(Cc2ccco2)C1", "IC50": "> 40 µM (inactive)"}
{"compound": "CCCCNC(=O)C1Sc2nnc(-c3ccccc3)n2NC1c1ccccc1", "note": "(stereo not drawn)", "IC50": "> 40 µM (inactive)"}
{"compound": "COC(=O)c1ccc(NC(=O)c2ccc(COc3cc(Cl)ccc3Cl)cc2)cc1", "IC50": "> 40 µM (inactive)"}
{"compound": "Cn1c(=O)n(CCc2ccccc2)c(=O)c2c1nc1n2CCN1Cc1ccccc1", "IC50": "> 40 µM (inactive)"}
{"compound": "CCCCCC(=O)C(CCCC)c1oc(=O)c(CCCC)c(O)c1CCCC", "note": "(stereo not drawn)", "IC50": "> 40 µM (inactive)"}
{"compound": "COc1ccc(Cl)cc1NC(=O)Cn1c(=O)n(CCCC(=O)NCc2ccc(C)cc2)c(=O)c2sccc21", "IC50": "> 40 µM (inactive)"}
{"compound": "COc1ccccc1/C=C/C(=O)NC(Cc1ccccc1)c1nc2ccccc2[nH]1", "note": "(stereo not drawn)", "IC50": "> 40 µM (inactive)"}
{"compound": "Cc1cc(=O)[nH]c(NC2CCN(S(=O)(=O)c3ccccc3C(F)(F)F)CC2)n1", "IC50": "> 40 µM (inactive)"}
{"compound": "Cc1ccc(C(=O)NC(C)c2ccccc2)cc1NC(=O)c1nsc2ccccc12", "note": "(stereo not drawn)", "IC50": "> 40 µM (inactive)"}
{"compound": "CCOc1ccc(C(=O)CCC(=O)Nc2cccc(S(=O)(=O)Nc3cccc(Cl)c3)c2)cc1", "IC50": "> 40 µM (inactive)"}
{"compound": "O=C1C=C(O)c2c(O)cccc2C1=O", "IC50": "19 µM"}
{"compound": "COc1ccc(/C=C/C(=O)Nc2nc3n(n2)C(c2ccccc2)CC(=O)N3)cc1", "note": "(stereo not drawn)", "IC50": "> 40 µM (inactive)"}
{"compound": "Cn1cc(C(=O)Nc2ccccc2)c2[nH]c(=O)n(Cc3ccccc3)c(=O)c21", "IC50": "> 40 µM (inactive)"}
{"compound": "CCc1nc(SCC(=O)Nc2cc(Cl)ccc2C)c2oc3ccccc3c2n1", "IC50": "> 40 µM (inactive)"}
{"compound": "Cc1cc2nc(SCC(=O)c3ccc(O)cc3)[nH]c2cc1C", "IC50": "> 40 µM (inactive)"}
{"compound": "COc1ccc(Cn2c(=O)[nH]c3cc(C(=O)NCCCN4CCN(c5cccc(Cl)c5)CC4)ccc3c2=O)cc1", "IC50": "> 40 µM (inactive)"}
{"compound": "Fc1ccccc1-c1nc2c3cnn(-c4ccccc4)c3ncn2n1", "IC50": "> 40 µM (inactive)"}
{"compound": "O=C(Cn1cc(C(=O)c2ccccc2)c(=O)c2cc(F)ccc21)Nc1ccc2c(c1)OCO2", "IC50": "> 40 µM (inactive)"}
{"compound": "CCc1ccc([C@@H]2c3c(C)nn(C)c3NC(=O)[C@H]2NC(=O)c2ccc(OC)c(OC)c2)cc1", "IC50": "> 40 µM (inactive)"}
{"compound": "COC(=O)Nc1cccn(Cc2c(Cl)cccc2Cl)c1=O", "IC50": "> 40 µM (inactive)"}
{"compound": "O=C(COc1nc2ccccc2nc1N1CCOCC1)NC(c1ccccc1)c1ccccc1", "IC50": "> 40 µM (inactive)"}
{"compound": "COc1cc(NC(=O)Cn2c(=O)n(-c3ccc(CC(=O)NCc4ccco4)cc3)c(=O)c3ccccc32)cc(OC)c1", "IC50": "> 40 µM (inactive)"}
{"compound": "O=C1CC(c2nc3ccccc3n2CCOc2ccc(Cl)cc2)CN1c1ccccc1", "note": "(stereo not drawn)", "IC50": "> 40 µM (inactive)"}
